# Laboratory results: ChEMBL document CHEMBL1201862, “PubChem BioAssay data set” (2004)
#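 Five concentrations, 48 hours, 96-well plates. GI50 marks 50% less growth.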 Active and inactive are the calls of the source. Rule as the data show it: active = GI50 up to about 1.1 µM and inactive = higher.
# Tests used:
# Experiment in all cases: NCI tumour cell line growth inhibition, 48 h
# A549 = test system: A549
# COLO 205 = test system: COLO 205
# HCC 2998 = test system: HCC 2998
# HOP-92 = test system: HOP-92
# LOX IMVI = test system: LOX IMVI
# M14 = test system: M14
# NCI-H226 = test system: NCI-H226
# OVCAR-5 = test system: OVCAR-5
# RXF 393 = test system: RXF 393
# SF-295 = test system: SF-295
# SF-539 = test system: SF-539
# SK-MEL-2 = test system: SK-MEL-2
# SK-OV-3 = test system: SK-OV-3
# SNB-75 = test system: SNB-75
# TK-10 = test system: TK-10
# U-251 = test system: U-251
# UACC-62 = test system: UACC-62
SMILES,GI50 (A549),GI50 (COLO 205),GI50 (HCC 2998),GI50 (HOP-92),GI50 (LOX IMVI),GI50 (M14),GI50 (NCI-H226),GI50 (OVCAR-5),GI50 (RXF 393),GI50 (SF-295),GI50 (SF-539),GI50 (SK-MEL-2),GI50 (SK-OV-3),GI50 (SNB-75),GI50 (TK-10),GI50 (U-251),GI50 (UACC-62)
CC1C=C(CCCCCCCCCCCC[C@@H](O)[C@@H]2CC[C@@H]([C@@H]3CC[C@@H](C(O)CCCCCCCCCCCCC4=C[C@H](C)OC4=O)O3)O2)C(=O)O1 (stereo partly drawn),4.5 µM (inactive),41.2 µM (inactive),> 100 µM (inactive),21.9 µM (inactive),12.2 µM (inactive),> 100 µM (inactive),31 µM (inactive),> 100 µM (inactive),> 96.8 µM (inactive),0.078 µM (active),3.23 µM (inactive),> 100 µM (inactive),> 100 µM (inactive),> 80 µM (inactive),> 100 µM (inactive),23.7 µM (inactive),> 100 µM (inactive)
COc1ccc(C2c3cc(OC)c(OC)cc3C(Cc3ccc([N+](=O)[O-])cc3)C2c2ccc([N+](=O)[O-])cc2)cc1OC (stereo not drawn),> 100 µM (inactive),> 100 µM (inactive),> 100 µM (inactive),0.879 µM (active),> 100 µM (inactive),> 100 µM (inactive),> 100 µM (inactive),> 100 µM (inactive),27.7 µM (inactive),> 100 µM (inactive),> 100 µM (inactive),> 100 µM (inactive),,49.7 µM (inactive),> 100 µM (inactive),> 100 µM (inactive),> 100 µM (inactive)
CC(=O)OCC1OC(N2C(=O)[C@@H](Oc3ccccc3)[C@H]2/C=C/c2ccccc2)C(OC(C)=O)C(OC(C)=O)C1OC(C)=O (stereo partly drawn),> 100 µM (inactive),> 100 µM (inactive),> 100 µM (inactive),44.5 µM (inactive),> 100 µM (inactive),> 100 µM (inactive),> 100 µM (inactive),> 100 µM (inactive),> 100 µM (inactive),53.6 µM (inactive),> 100 µM (inactive),> 100 µM (inactive),> 100 µM (inactive),31.1 µM (inactive),> 100 µM (inactive),58.9 µM (inactive),> 100 µM (inactive)
COCC(O)Cn1ccnc1[N+](=O)[O-] (stereo not drawn) [MISONIDAZOLE],> 100 µM (inactive),> 100 µM (inactive),> 100 µM (inactive),,> 100 µM (inactive),> 100 µM (inactive),> 100 µM (inactive),> 100 µM (inactive),,> 100 µM (inactive),> 100 µM (inactive),> 100 µM (inactive),> 100 µM (inactive),,> 100 µM (inactive),> 100 µM (inactive),
CN1C(=O)CC(CC(=O)C2CCCCC2=O)CC1=O (stereo not drawn),> 100 µM (inactive),> 100 µM (inactive),> 100 µM (inactive),> 100 µM (inactive),> 100 µM (inactive),> 100 µM (inactive),> 100 µM (inactive),> 100 µM (inactive),> 100 µM (inactive),> 100 µM (inactive),> 100 µM (inactive),,> 100 µM (inactive),> 100 µM (inactive),> 100 µM (inactive),> 100 µM (inactive),> 100 µM (inactive)
O=C(O)CSc1nnc(COc2ccccc2)n1-c1ccccc1,> 100 µM (inactive),> 100 µM (inactive),> 100 µM (inactive),> 100 µM (inactive),> 100 µM (inactive),> 100 µM (inactive),> 100 µM (inactive),> 100 µM (inactive),,> 100 µM (inactive),> 100 µM (inactive),> 100 µM (inactive),> 100 µM (inactive),> 100 µM (inactive),> 100 µM (inactive),> 100 µM (inactive),
CN(C)/C=N/c1nc2ncn(CCOC(=O)c3ccccc3)c2c(=O)[nH]1,> 100 µM (inactive),> 100 µM (inactive),,> 100 µM (inactive),> 100 µM (inactive),> 100 µM (inactive),> 100 µM (inactive),> 100 µM (inactive),> 100 µM (inactive),> 100 µM (inactive),> 100 µM (inactive),> 100 µM (inactive),> 100 µM (inactive),> 100 µM (inactive),> 100 µM (inactive),> 100 µM (inactive),> 100 µM (inactive)
CN1Cc2c(nc(-c3ccc(Br)cc3)c[n+]2[O-])N(C)C1,> 100 µM (inactive),> 100 µM (inactive),,> 100 µM (inactive),,> 100 µM (inactive),> 100 µM (inactive),> 100 µM (inactive),> 100 µM (inactive),> 100 µM (inactive),> 100 µM (inactive),> 100 µM (inactive),> 100 µM (inactive),> 100 µM (inactive),,> 100 µM (inactive),
